# Activity calls are given as the source filed them. No cut-off for these calls is given here.
# Assays:
# SW-620 [1] = experiment: Antiproliferative activity against human SW620 cells assessed as inhibition of DNA synthesis after 48 hrs by 2-h BrdU uptake assay; type: functional, cell-based
# [2] = Solubility in tris buffer at pH 9; type: physicochemical
# Mus musculus [3] = experiment: Inhibition of histone-H3 phosphorylation in human SW620 cells xenografted mouse at 2.5 mg/kg/day, sc after 48 hrs; type: functional; settings: SW-620, sc, route subcutaneous
# [4] = biological target: Voltage-gated inwardly rectifying potassium channel KCNH2 (Homo sapiens, UniProt Q12809); experiment: Inhibition of human ERG by automated whole cell electrophysiology
# Chain of Voltage-gated inwardly rectifying potassium channel KCNH2 (Q12809 whole entry): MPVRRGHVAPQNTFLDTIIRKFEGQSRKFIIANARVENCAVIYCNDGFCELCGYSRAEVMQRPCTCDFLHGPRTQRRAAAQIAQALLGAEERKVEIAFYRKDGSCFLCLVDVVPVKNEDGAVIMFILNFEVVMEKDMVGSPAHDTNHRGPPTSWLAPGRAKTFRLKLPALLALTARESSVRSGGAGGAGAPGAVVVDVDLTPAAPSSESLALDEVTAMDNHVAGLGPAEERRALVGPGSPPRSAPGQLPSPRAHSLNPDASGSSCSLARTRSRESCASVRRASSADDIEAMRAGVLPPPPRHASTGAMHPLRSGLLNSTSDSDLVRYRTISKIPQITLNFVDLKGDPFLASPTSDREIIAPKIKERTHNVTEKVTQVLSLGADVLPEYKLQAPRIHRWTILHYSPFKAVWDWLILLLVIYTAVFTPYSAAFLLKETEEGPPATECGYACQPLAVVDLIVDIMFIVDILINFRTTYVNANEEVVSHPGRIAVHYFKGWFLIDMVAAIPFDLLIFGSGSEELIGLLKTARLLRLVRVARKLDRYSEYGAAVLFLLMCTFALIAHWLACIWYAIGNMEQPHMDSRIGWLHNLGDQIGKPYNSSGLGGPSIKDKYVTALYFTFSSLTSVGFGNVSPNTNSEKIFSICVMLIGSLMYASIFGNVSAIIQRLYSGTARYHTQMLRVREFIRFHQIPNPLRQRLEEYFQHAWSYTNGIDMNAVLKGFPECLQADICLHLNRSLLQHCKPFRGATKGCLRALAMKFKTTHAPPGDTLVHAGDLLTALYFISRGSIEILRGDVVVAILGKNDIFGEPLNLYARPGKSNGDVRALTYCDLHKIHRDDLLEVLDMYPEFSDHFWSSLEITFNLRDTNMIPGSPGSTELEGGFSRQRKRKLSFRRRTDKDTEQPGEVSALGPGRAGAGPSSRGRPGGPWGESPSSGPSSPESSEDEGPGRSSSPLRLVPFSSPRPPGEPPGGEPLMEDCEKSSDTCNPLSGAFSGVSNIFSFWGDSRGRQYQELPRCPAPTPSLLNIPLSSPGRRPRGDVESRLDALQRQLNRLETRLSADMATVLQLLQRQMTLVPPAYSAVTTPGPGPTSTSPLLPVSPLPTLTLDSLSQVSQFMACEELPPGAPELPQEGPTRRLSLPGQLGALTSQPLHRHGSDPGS
# SW-620 [5] = experiment: Antitumor activity against human SW620 cells xenografted in mouse assessed as reduction in tumor size at 2.5 mg/kg after 48 hrs; type: functional, organism-based; design: dose 2.5 mg/kg
# Mus musculus [6] = experiment: Inhibition of histone-H3 phosphorylation in human SW620 cells xenografted mouse at 0.5 mg/kg/day, sc after 48 hrs; type: functional, organism-based; settings: SW-620
# Cytochrome P450 3A4 = Cytochrome P450 3A4 (Homo sapiens, UniProt P08684); experiment: Inhibition of human CYP3A4; type: ADME
# Chain of Cytochrome P450 3A4 (P08684 whole entry): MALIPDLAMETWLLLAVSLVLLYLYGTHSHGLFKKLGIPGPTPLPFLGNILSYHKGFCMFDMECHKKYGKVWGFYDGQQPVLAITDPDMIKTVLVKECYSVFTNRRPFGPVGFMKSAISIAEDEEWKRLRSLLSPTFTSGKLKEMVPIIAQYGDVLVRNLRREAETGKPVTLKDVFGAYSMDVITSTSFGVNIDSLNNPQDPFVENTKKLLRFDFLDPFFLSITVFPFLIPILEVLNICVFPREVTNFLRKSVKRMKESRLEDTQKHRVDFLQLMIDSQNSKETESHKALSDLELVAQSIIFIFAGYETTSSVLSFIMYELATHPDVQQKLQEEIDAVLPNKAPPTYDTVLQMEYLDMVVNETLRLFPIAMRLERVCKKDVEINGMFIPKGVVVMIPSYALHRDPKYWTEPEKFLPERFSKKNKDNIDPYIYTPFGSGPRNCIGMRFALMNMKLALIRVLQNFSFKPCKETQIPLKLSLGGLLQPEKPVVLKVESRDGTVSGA
# SW-620 [7] = experiment: Antitumor activity against human SW620 cells xenografted in mouse assessed as tumor growth inhibition at 50 mg/kg after 24 hrs; type: functional; design: scale not given: the % may be the effect or the level left
smiles,measurement,setting,value
O=C(Cn1cc(Nc2ncnc3cc(OCCCN4CCC[C@@H]4COP(=O)(O)O)ccc23)cn1)Nc1cccc(F)c1F,IC50,SW-620 [1],< 0.001 µM
same,solubility,[2],10000 µg/mL
same,inhibition in vivo at 2.5 mg/kg/day,Mus musculus [3],75%
same,IC50,[4],> 100 µM
same,Activity,SW-620 [5],Active
same,Activity,Mus musculus [6],Active
same,IC50,Cytochrome P450 3A4,6.1 µM
same,Activity,SW-620 [7],89%

# Source: ChEMBL document CHEMBL1141530, “Synthesis and SAR of 1-acetanilide-4-aminopyrazole-substituted quinazolines: selective inhibitors of Aurora B kinase with potent anti-tumor activity” (Bioorg Med Chem Lett, 2008)
